These results are taken from patent US20070128285A1, “Pharmaceutical composition for oral administration” (priority 2005, published 2007).

The data set can be described thus: Stability of setron drug aqueous solutions (0.1 w/w %) at pH 8 to 3, stored at 40° C. for three months. The format is physicochemical. The following applies: 0.1 w/w % aqueous solution. On the procedure: The present inventors have investigated the stability of each setron drug (azasetron, granisetron, tropisetron, ramosetron, or ondansetron) in the aqueous solution of pH 8 to3. That is, an aqueous solution of each setron drug (0.1 w/w %) was adjusted to various pH values (pH 8 to 3) with hydrochloric acid or sodium hydroxide. After storing at 40° C. for three months, the external appearance and taste of the solution were observed. As a result, for each of the setron drugs, the aqueous solution of pH 8 is colored faint yellow, but the aqueous solution of pH 3 to 7 is colorless.

Where [1] appears, read: pH 3 to 7, stored at 40° C. for three months.
Where [2] appears, read: pH 8, stored at 40° C. for three months.

For `Cn1cc(C(=O)[C@@H]2CCc3nc[nH]c3C2)c2ccccc21` [ramosetron], the “external appearance (color) of the aqueous solution” value (from here on “external appearance (color)”) runs as follows: under setting [1], “colorless”; under setting [2], “faint yellow”.

Turning to `CN1C(=O)COc2c(C(=O)NC3CN4CCC3CC4)cc(Cl)cc21` (stereo not shown) [azasetron], the “external appearance (color)” value under setting [1] is “colorless” and the “external appearance (color)” value under setting [2] is listed as “faint yellow”.

Take `Cc1nccn1CC1CCc2c(c3ccccc3n2C)C1=O` (stereo not shown) [ondansetron]: the “external appearance (color)” value under setting [1] is listed as “colorless” and the “external appearance (color)” value under setting [2] is “faint yellow”.

For `CN1C2CCCC1CC(NC(=O)c1nn(C)c3ccccc13)C2` (stereo not shown) [granisetron], the “external appearance (color)” value runs as follows: under setting [1], “colorless”; under setting [2], “faint yellow”.

`CN1[C@@H]2CC[C@H]1C[C@@H](OC(=O)c1c[nH]c3ccccc13)C2` [tropisetron]: the “external appearance (color)” value runs as follows: under setting [1], “colorless”; under setting [2], “faint yellow”.
